Results reported in PubChem BioAssay (NCI).
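Compound exposure: 48 hours, 5 concentrations, 96-well plates. The concentration for 50% growth inhibition is given as GI50. TGI marks complete inhibition of growth.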

How the values were obtained:
Assay in all cases: NCI tumour cell line growth inhibition, 48 h
SK-MEL-2 melanoma = test system: SK-MEL-2 melanoma
U251 CNS = test system: U251 CNS
CAKI-1 renal = test system: CAKI-1 renal
MDA-MB-468 breast = test system: MDA-MB-468 breast
SNB-75 CNS = test system: SNB-75 CNS
M14 melanoma = test system: M14 melanoma
OVCAR-3 ovarian = test system: OVCAR-3 ovarian
UO-31 renal = test system: UO-31 renal
A498 renal = test system: A498 renal
EKVX NSCLC = test system: EKVX NSCLC
786-0 renal = test system: 786-0 renal
BT-549 breast = test system: BT-549 breast
NCI-H226 lung = test system: NCI-H226 lung
SF-295 CNS = test system: SF-295 CNS
RPMI-8226 leukemia = test system: RPMI-8226 leukemia
UACC-257 melanoma = test system: UACC-257 melanoma
TK-10 renal = test system: TK-10 renal
T-47D breast = test system: T-47D breast
PC-3 prostate = test system: PC-3 prostate
OVCAR-8 ovarian = test system: OVCAR-8 ovarian
HCC-2998 colon = test system: HCC-2998 colon
IGROV1 ovarian = test system: IGROV1 ovarian
SNB-19 CNS = test system: SNB-19 CNS
UACC-62 melanoma = test system: UACC-62 melanoma
MALME-3M melanoma = test system: MALME-3M melanoma
CCRF-CEM leukemia = test system: CCRF-CEM leukemia
A549 NSCLC = test system: A549 NSCLC
SF-268 CNS = test system: SF-268 CNS
SK-MEL-5 melanoma = test system: SK-MEL-5 melanoma
RXF 393 renal = test system: RXF 393 renal
MCF7 breast = test system: MCF7 breast
HOP-62 NSCLC = test system: HOP-62 NSCLC
HCT-15 colon = test system: HCT-15 colon
DU-145 prostate = test system: DU-145 prostate
HS 578T breast = test system: HS 578T breast
OVCAR-4 ovarian = test system: OVCAR-4 ovarian
MOLT-4 leukemia = test system: MOLT-4 leukemia
SK-MEL-28 melanoma = test system: SK-MEL-28 melanoma
NCI-H23 lung = test system: NCI-H23 lung
NCI-H522 lung = test system: NCI-H522 lung
SF-539 CNS = test system: SF-539 CNS
HL-60(TB) leukemia = test system: HL-60(TB) leukemia
OVCAR-5 ovarian = test system: OVCAR-5 ovarian
HT29 colon = test system: HT29 colon
K-562 leukemia = test system: K-562 leukemia
MDA-MB-435 = test system: MDA-MB-435
NCI-H460 lung = test system: NCI-H460 lung
SN12C renal = test system: SN12C renal
ACHN renal = test system: ACHN renal
SK-OV-3 ovarian = test system: SK-OV-3 ovarian
MDA-MB-231 breast = test system: MDA-MB-231 breast
HOP-92 NSCLC = test system: HOP-92 NSCLC
KM12 colon = test system: KM12 colon
HCT-116 colon = test system: HCT-116 colon

Compound: O=C(/C=C/c1cccc(OCc2ccccc2)c1)c1nc2ccccc2[nH]1
- GI50 (SK-MEL-2 melanoma): 22.5 µM
- TGI (SK-MEL-2 melanoma): 64.8 µM
- GI50 (U251 CNS): 3.03 µM
- TGI (U251 CNS): 10.2 µM
- GI50 (CAKI-1 renal): 14 µM
- TGI (CAKI-1 renal): > 100 µM
- GI50 (MDA-MB-468 breast): 10.7 µM
- TGI (MDA-MB-468 breast): 82.5 µM
- GI50 (SNB-75 CNS): 14.4 µM
- TGI (SNB-75 CNS): 48.7 µM
- GI50 (M14 melanoma): 45.1 µM
- TGI (M14 melanoma): > 100 µM
- GI50 (OVCAR-3 ovarian): 4.01 µM
- TGI (OVCAR-3 ovarian): > 100 µM
- GI50 (UO-31 renal): 8.96 µM
- TGI (UO-31 renal): > 100 µM
- GI50 (A498 renal): 25 µM
- TGI (A498 renal): > 100 µM
- GI50 (EKVX NSCLC): 19.9 µM
- TGI (EKVX NSCLC): 69.7 µM
- GI50 (786-0 renal): 14 µM
- TGI (786-0 renal): 44.1 µM
- GI50 (BT-549 breast): 11.4 µM
- TGI (BT-549 breast): 40.2 µM
- GI50 (NCI-H226 lung): 24.3 µM
- TGI (NCI-H226 lung): > 100 µM
- GI50 (SF-295 CNS): 15.6 µM
- TGI (SF-295 CNS): 37.9 µM
- GI50 (RPMI-8226 leukemia): 2.86 µM
- TGI (RPMI-8226 leukemia): 8.3 µM
- GI50 (UACC-257 melanoma): > 100 µM
- TGI (UACC-257 melanoma): > 100 µM
- GI50 (TK-10 renal): 28.6 µM
- TGI (TK-10 renal): > 100 µM
- GI50 (T-47D breast): 6.9 µM
- TGI (T-47D breast): > 100 µM
- GI50 (PC-3 prostate): 15.9 µM
- TGI (PC-3 prostate): > 100 µM
- GI50 (OVCAR-8 ovarian): 17 µM
- TGI (OVCAR-8 ovarian): 72.6 µM
- GI50 (HCC-2998 colon): 7.19 µM
- TGI (HCC-2998 colon): 41.3 µM
- GI50 (IGROV1 ovarian): 14 µM
- TGI (IGROV1 ovarian): 78.2 µM
- GI50 (SNB-19 CNS): 13.6 µM
- TGI (SNB-19 CNS): 41.1 µM
- GI50 (UACC-62 melanoma): 15.6 µM
- TGI (UACC-62 melanoma): > 100 µM
- GI50 (MALME-3M melanoma): 28.3 µM
- TGI (MALME-3M melanoma): > 100 µM
- GI50 (CCRF-CEM leukemia): 8.99 µM
- TGI (CCRF-CEM leukemia): > 100 µM
- GI50 (A549 NSCLC): 49.9 µM
- TGI (A549 NSCLC): > 100 µM
- GI50 (SF-268 CNS): 26.2 µM
- TGI (SF-268 CNS): > 100 µM
- GI50 (SK-MEL-5 melanoma): 39.1 µM
- TGI (SK-MEL-5 melanoma): > 100 µM
- GI50 (RXF 393 renal): 10.5 µM
- TGI (RXF 393 renal): 27.9 µM
- GI50 (MCF7 breast): 2.9 µM
- TGI (MCF7 breast): > 100 µM
- GI50 (HOP-62 NSCLC): 17.8 µM
- TGI (HOP-62 NSCLC): 43.2 µM
- GI50 (HCT-15 colon): 3.06 µM
- TGI (HCT-15 colon): > 100 µM
- GI50 (DU-145 prostate): 54.6 µM
- TGI (DU-145 prostate): > 100 µM
- GI50 (HS 578T breast): 20.3 µM
- TGI (HS 578T breast): 82.5 µM
- GI50 (OVCAR-4 ovarian): 23.9 µM
- TGI (OVCAR-4 ovarian): > 100 µM
- GI50 (MOLT-4 leukemia): 5.28 µM
- TGI (MOLT-4 leukemia): 55.1 µM
- GI50 (SK-MEL-28 melanoma): 25.2 µM
- TGI (SK-MEL-28 melanoma): > 100 µM
- GI50 (NCI-H23 lung): 18.3 µM
- TGI (NCI-H23 lung): > 100 µM
- GI50 (NCI-H522 lung): 26.3 µM
- TGI (NCI-H522 lung): > 100 µM
- GI50 (SF-539 CNS): 8.82 µM
- TGI (SF-539 CNS): 26.7 µM
- GI50 (HL-60(TB) leukemia): 4.39 µM
- TGI (HL-60(TB) leukemia): 25 µM
- GI50 (OVCAR-5 ovarian): 25.2 µM
- TGI (OVCAR-5 ovarian): > 100 µM
- GI50 (HT29 colon): 3.98 µM
- TGI (HT29 colon): > 100 µM
- GI50 (K-562 leukemia): 4.14 µM
- TGI (K-562 leukemia): > 100 µM
- GI50 (MDA-MB-435): > 100 µM
- TGI (MDA-MB-435): > 100 µM
- GI50 (NCI-H460 lung): 15.4 µM
- TGI (NCI-H460 lung): > 100 µM
- GI50 (SN12C renal): 38 µM
- TGI (SN12C renal): > 100 µM
- GI50 (ACHN renal): 29.6 µM
- TGI (ACHN renal): > 100 µM
- GI50 (SK-OV-3 ovarian): 20.2 µM
- TGI (SK-OV-3 ovarian): 73.9 µM
- GI50 (MDA-MB-231 breast): 11.9 µM
- TGI (MDA-MB-231 breast): 42.5 µM
- GI50 (HOP-92 NSCLC): 6.51 µM
- TGI (HOP-92 NSCLC): 37.2 µM
- GI50 (KM12 colon): 3.56 µM
- TGI (KM12 colon): > 100 µM
- GI50 (HCT-116 colon): 3.2 µM
- TGI (HCT-116 colon): > 100 µM
